Reference: ChEMBL document CHEMBL1201862, “PubChem BioAssay data set” (2004)
Activity calls are given as the source filed them.

Tests used:
[1] = THP-1 cell cytotoxicity, dose response, cytotoxicity control for non-replicating M. tuberculosis project (AID 489025); type: functional
[2] = HepG2 cell cytotoxicity, dose response, cytotoxicity control for non-replicating M. tuberculosis project (AID 489018); type: functional; conditions: Mycobacterium tuberculosis
cells = type: functional
[3] = Vero E6 cell cytotoxicity, dose response, cytotoxicity control for non-replicating M. tuberculosis project, secondary assay (AID 492998); type: functional, VeroE6; conditions: Vero C1008
[4] = cytotoxicity in HPDE-C7 cells, cell-based, fluorescence, HTS (AID 430); type: functional; conditions: Homo sapiens
[5] = cytotoxicity in KRAS-transformed pancreatic duct cells, primary screen, cell-based, fluorescence, HTS (AID 431); type: functional; conditions: Homo sapiens;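 further: cell line used: HPDE-C7K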
fMet-Leu-Phe receptor = biological target: T1, fMet-Leu-Phe receptor (Homo sapiens, UniProt P21462); test: FPR ligands, dose response (AID 519); type: functional
T1 sequence (P21462 whole entry): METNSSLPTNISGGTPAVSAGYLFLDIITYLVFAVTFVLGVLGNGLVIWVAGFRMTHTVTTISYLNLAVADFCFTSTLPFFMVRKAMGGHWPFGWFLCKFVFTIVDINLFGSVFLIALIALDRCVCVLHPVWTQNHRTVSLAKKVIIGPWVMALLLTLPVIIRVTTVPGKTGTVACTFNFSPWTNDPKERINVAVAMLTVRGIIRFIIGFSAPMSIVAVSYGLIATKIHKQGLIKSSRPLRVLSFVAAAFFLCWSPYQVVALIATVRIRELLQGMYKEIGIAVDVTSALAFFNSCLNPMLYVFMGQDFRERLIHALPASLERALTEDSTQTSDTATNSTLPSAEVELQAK

Paired box protein Pax-8 = Paired box protein Pax-8 (Homo sapiens, UniProt Q06710); test: inhibitors of PAX8-driven TPO luciferase reporter, dose response, RMG-I cells, cherry-pick (AID 687027); type: functional, cell-based;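 further: luciferase reporter driven by Pax8 target thyroperoxidase promoter measured by SteadyGlo luminescence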
[6] = biological target: Disintegrin and metalloproteinase domain-containing protein 17 (Homo sapiens, UniProt P78536); test: ADAM17 protease inhibitors, dose response, counter-screen for ADAM10 exosite inhibitor project, biochemical, quenched FRET substrate (AID 743253)
Beta-galactosidase = Beta-galactosidase (Escherichia coli, UniProt Q8VNN2); test: beta-galactosidase enzyme inhibitors and activators, dose response, artefact control for CCR6 antagonist project, biochemical, E. coli enzyme, set 3 (AID 504712); type: functional
[7] = biological target: T2, RNA-binding protein pos-1 (Caenorhabditis elegans, UniProt G5EF15); test: inhibitors of POS-1/mex-3 RNA binding, dose response, biochemical, fluorescence polarization (AID 1964);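 further: purified POS-1 fused to maltose binding protein made in E. coli; potency of compounds blocking POS-1 binding to fluorescent RNA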
T2 sequence (G5EF15 whole entry): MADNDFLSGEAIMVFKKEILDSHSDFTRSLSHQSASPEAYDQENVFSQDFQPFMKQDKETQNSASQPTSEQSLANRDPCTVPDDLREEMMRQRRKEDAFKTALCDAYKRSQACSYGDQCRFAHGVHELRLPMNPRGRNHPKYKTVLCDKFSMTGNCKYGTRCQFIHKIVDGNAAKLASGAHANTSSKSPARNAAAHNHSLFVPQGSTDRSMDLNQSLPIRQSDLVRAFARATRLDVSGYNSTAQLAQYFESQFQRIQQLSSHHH

[8] = biological target: T3, Zinc finger protein mex-5 (Caenorhabditis elegans, UniProt Q9XUB2); test: MEX-5/TCR-2 RNA interaction inhibitors, dose response, biochemical, C. elegans, fluorescence polarization (AID 1960)
T3 sequence (Q9XUB2 whole entry): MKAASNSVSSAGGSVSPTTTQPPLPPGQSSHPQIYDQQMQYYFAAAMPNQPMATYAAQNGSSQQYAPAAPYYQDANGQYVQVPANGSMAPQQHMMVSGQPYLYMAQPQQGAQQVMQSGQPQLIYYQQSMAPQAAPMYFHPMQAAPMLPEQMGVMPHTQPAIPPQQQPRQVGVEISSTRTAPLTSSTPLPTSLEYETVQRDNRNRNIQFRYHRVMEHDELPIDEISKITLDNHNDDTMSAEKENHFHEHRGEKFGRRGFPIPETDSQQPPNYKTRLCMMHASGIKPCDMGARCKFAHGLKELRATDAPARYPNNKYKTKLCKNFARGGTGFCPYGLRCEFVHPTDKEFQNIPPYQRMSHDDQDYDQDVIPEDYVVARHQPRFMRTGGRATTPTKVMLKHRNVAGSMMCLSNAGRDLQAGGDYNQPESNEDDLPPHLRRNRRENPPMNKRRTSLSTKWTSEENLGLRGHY

[9] = biological target: T4, Polyadenylate-binding protein 1 (Homo sapiens, UniProt P11940); test: PABP1 MLLE–PAM2 binding inhibitor potency, dose response, biochemical, fluorescence polarization, FITC-PAM2 peptide (AID 602259); type: functional; conditions: read-out: IC50_Mean
Aminopeptidase N = biological target: T5, Aminopeptidase N (Plasmodium falciparum FcB1/Columbia, UniProt O96935); test: P. falciparum M1AAP inhibitors, biochemical, fluorogenic H-Leu-NHMec substrate, 1536-well (AID 1445); set-up: species or system Plasmodium falciparum 3D7, 3D7
T5 sequence (O96935 whole entry): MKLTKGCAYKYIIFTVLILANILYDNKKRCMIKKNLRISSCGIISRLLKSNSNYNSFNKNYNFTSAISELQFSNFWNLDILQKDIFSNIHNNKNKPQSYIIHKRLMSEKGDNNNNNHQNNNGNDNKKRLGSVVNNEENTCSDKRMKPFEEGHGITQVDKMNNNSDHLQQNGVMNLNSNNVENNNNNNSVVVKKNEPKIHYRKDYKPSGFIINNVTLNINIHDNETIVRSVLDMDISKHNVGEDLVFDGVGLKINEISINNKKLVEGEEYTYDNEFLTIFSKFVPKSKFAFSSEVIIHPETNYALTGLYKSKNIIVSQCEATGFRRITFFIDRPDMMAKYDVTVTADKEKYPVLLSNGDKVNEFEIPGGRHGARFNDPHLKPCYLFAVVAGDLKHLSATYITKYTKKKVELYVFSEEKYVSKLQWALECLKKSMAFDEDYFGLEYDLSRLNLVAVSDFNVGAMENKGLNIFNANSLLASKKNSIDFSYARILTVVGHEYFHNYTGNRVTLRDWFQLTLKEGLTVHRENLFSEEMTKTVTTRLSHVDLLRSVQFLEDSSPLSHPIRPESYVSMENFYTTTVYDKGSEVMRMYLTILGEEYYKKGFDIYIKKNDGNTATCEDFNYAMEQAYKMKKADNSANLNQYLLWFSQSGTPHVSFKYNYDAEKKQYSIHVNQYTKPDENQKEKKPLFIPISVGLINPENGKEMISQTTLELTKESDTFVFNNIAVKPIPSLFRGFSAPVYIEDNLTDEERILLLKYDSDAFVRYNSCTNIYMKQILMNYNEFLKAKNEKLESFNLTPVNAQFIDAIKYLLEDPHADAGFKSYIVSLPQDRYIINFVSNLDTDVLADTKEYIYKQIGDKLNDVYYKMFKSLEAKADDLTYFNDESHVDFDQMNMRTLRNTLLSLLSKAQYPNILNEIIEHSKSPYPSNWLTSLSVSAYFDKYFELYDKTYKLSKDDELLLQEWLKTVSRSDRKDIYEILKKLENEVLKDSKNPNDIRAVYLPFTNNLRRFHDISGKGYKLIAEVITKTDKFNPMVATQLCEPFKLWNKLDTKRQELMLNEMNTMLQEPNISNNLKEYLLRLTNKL

[10] = biological target: T4, Polyadenylate-binding protein 1; test: PABP1 MLLE–PAM2 interaction inhibitors, dose response, miRNA deadenylation inhibitor project, biochemical, fluorescence polarization, Cy5-PAM2 peptide, secondary (AID 602260); type: functional; conditions: read-out: IC50_Mean
[11] = Luminescence Cell-Based Dose Retest to Confirm Inhibitors of Cancer Stem Cells. [Related pubchem assays (depositor defined):AID2717, AID2721]; type: functional; conditions: Homo sapiens
[12] = biological target: T6, Ubiquitin-conjugating enzyme E2 N (Homo sapiens, UniProt P61088); type: functional;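 further: Dose-response confirmation in a TR-FRET assay detecting UBC13-driven polyubiquitin chain formation, inhibition measured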
T6 sequence (P61088 whole entry): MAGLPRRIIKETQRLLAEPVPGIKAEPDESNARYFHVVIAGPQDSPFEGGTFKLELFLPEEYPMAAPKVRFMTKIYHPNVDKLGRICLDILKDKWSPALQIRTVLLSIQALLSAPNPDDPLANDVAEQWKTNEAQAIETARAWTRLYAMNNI

[13] = biological target: G-protein coupled receptor 55 (Homo sapiens, UniProt Q9Y2T6); test: GPR55 agonists via beta-arrestin recruitment, primary screen, imaging, U2OS cells, beta-arrestin-GFP redistribution (AID 1961); type: functional
[14] = biological target: Voltage-gated N-type calcium channel alpha-1B subunit/Amyloid beta A4 precursor protein-binding family A member 1 (Homo sapiens, UniProt Q00975+Q02410); type: protein assay
H4 = test: Luminescence Cell-Based Dose Response HTS to Identify Activators of 5'UTR Stem-Loop Driven Prion Protein mRNA Translation in H4 Neuroglioblastoma Cells. [Related pubchem assays: 1829 (Project Summary), 1814 (Primary HTS)]; type: functional; conditions: Homo sapiens
Cytochrome P450 3A4 = Cytochrome P450 3A4 (Homo sapiens, UniProt P08684);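 further: CYP3A4 tested as one member of a cytochrome P450 panel screen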
[15] = Luminescence Cell-Based Dose Confirmation HTS to Identify Activators of 5'UTR Stem-Loop Driven Alpha-Synuclein mRNA Translation in H4 Neuroglioblastoma Cells. [Related pubchem assays: 1829 (Project Summary), 1814 (Primary HTS)]; type: functional
[16] = Luminescence Cell-Based Dose Response HTS to Identify Activators of Luciferase Translation or Activity in H4 […] Cells. [Related pubchem assays: 1829 (Project Summary), 1814 (Primary HTS)]; type: functional
Nonstructural protein 1 = Nonstructural protein 1 (Influenza A virus, UniProt Q194T2); type: functional, Influenza A virus (A/California/07/2009(H1N1))
Cytochrome P450 2C19 = Cytochrome P450 2C19 (Homo sapiens, UniProt P33261); test: Cytochrome panel assay with activity outcomes. Panel member name: p450-cyp2c19 Compounds with AC50 equal or less than 10 uM are considered active; type: functional; conditions: read-out: AC50

Sequence of Cytochrome P450 3A4 (P08684 whole entry): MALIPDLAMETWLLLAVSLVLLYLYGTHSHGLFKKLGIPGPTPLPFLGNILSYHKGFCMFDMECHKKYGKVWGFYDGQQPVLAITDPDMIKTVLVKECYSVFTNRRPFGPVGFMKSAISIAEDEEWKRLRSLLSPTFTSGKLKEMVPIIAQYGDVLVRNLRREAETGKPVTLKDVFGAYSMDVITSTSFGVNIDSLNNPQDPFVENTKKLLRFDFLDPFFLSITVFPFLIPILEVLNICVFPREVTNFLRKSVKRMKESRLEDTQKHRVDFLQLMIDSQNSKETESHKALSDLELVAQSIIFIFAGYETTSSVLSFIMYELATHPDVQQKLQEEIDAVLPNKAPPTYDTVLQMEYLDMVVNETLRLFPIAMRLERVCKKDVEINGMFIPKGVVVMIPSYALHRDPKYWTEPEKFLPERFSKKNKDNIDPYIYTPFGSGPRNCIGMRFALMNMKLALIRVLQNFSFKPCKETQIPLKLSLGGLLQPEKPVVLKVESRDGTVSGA
T4 sequence (P11940 whole entry): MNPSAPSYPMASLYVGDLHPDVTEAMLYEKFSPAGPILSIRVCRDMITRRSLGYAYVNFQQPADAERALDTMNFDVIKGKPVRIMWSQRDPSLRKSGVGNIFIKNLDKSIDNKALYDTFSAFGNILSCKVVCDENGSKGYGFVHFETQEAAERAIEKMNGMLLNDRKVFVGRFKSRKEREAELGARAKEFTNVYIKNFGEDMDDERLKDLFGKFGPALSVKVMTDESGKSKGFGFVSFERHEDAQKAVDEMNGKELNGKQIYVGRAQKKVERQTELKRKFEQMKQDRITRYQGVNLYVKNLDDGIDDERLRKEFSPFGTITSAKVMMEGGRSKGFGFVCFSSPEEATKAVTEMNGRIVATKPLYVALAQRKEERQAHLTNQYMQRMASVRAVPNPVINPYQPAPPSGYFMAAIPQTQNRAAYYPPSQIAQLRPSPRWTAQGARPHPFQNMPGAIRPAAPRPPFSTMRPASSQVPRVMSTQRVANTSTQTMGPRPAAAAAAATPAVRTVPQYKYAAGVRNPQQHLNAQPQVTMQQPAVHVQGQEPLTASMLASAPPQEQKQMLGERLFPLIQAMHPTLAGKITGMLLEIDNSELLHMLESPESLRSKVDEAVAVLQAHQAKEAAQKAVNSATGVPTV
Sequence of Voltage-gated N-type calcium channel alpha-1B subunit/Amyloid beta A4 precursor protein-binding family A member 1 (Q00975 whole entry): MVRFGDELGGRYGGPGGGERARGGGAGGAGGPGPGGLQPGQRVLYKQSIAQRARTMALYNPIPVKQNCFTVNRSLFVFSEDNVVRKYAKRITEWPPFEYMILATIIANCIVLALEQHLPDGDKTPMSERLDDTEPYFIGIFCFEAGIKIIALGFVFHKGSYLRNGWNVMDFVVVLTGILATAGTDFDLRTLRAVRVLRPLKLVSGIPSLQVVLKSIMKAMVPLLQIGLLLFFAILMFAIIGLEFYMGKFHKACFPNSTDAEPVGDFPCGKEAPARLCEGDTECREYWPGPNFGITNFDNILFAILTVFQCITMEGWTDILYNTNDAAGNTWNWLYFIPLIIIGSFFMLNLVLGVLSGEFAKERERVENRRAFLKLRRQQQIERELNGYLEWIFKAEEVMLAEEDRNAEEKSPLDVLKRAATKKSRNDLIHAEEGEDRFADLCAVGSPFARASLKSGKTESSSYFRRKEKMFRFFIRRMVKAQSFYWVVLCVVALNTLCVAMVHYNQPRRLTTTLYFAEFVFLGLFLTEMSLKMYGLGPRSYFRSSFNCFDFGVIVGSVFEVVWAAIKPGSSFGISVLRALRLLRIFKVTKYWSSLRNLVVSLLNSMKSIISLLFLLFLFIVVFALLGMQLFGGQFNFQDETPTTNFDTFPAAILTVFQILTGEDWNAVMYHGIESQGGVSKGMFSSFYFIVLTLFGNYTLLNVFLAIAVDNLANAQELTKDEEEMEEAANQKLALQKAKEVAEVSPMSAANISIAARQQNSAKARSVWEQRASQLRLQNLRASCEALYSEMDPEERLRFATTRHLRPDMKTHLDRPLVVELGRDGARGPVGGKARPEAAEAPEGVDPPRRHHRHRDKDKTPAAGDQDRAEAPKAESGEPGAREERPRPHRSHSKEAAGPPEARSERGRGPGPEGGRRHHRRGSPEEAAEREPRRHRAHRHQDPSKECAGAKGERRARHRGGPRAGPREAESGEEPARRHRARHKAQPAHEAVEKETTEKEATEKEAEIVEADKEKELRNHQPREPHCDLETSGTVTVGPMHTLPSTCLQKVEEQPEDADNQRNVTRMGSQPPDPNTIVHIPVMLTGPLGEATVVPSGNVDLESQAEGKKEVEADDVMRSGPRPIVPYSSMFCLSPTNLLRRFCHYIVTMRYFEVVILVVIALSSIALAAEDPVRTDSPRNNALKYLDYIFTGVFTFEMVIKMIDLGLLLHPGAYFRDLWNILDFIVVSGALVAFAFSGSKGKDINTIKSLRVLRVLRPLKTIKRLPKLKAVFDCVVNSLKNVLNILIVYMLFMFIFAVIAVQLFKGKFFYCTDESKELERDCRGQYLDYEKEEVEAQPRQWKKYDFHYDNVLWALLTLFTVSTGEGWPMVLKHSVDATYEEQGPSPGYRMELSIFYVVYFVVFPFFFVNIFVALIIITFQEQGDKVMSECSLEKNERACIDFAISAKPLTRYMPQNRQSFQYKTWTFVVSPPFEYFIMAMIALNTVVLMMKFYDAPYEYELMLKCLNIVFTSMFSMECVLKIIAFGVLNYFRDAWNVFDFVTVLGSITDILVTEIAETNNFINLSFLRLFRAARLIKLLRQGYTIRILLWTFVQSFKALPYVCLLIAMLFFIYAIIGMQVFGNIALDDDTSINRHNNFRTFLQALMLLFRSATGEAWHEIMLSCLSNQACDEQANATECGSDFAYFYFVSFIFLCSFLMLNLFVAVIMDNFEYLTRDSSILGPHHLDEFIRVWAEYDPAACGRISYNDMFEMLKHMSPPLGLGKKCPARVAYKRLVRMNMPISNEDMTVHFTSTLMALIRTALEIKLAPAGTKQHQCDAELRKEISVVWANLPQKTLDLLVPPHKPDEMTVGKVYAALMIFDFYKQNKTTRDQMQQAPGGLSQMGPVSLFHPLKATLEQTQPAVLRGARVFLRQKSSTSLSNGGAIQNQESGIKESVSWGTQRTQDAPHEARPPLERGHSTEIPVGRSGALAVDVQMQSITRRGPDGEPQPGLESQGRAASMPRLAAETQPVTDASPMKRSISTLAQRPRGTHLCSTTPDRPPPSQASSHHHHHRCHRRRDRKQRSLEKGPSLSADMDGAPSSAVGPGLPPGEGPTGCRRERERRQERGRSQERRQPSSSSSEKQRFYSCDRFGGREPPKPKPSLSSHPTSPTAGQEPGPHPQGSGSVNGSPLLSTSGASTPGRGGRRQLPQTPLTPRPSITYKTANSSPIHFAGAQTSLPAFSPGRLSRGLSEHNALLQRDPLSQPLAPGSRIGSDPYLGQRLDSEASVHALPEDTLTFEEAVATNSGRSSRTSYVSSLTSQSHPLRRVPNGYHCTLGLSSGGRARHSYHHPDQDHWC
Sequence of Voltage-gated N-type calcium channel alpha-1B subunit/Amyloid beta A4 precursor protein-binding family A member 1 (Q02410 whole entry): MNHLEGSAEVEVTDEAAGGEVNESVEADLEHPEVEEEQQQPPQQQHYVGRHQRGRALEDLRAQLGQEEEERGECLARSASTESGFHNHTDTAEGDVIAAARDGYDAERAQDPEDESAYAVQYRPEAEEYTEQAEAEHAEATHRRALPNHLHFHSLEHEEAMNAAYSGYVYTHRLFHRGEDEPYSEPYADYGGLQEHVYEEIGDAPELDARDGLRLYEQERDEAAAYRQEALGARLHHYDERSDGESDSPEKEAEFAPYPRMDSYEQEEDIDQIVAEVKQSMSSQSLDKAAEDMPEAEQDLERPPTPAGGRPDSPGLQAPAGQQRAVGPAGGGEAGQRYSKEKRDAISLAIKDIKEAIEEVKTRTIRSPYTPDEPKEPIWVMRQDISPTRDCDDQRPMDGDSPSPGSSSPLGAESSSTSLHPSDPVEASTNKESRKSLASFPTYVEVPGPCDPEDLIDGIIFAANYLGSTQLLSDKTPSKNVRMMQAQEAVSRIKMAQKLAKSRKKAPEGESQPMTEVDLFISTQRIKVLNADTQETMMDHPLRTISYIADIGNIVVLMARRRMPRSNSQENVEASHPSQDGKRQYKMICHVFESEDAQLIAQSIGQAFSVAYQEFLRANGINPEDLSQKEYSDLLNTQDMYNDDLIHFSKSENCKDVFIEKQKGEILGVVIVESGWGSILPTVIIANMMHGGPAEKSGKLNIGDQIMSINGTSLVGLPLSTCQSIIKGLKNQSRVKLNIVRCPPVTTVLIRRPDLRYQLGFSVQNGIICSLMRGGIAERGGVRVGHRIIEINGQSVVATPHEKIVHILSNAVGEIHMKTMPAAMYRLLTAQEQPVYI
Sequence of Paired box protein Pax-8 (Q06710 whole entry, the tested form may be a part): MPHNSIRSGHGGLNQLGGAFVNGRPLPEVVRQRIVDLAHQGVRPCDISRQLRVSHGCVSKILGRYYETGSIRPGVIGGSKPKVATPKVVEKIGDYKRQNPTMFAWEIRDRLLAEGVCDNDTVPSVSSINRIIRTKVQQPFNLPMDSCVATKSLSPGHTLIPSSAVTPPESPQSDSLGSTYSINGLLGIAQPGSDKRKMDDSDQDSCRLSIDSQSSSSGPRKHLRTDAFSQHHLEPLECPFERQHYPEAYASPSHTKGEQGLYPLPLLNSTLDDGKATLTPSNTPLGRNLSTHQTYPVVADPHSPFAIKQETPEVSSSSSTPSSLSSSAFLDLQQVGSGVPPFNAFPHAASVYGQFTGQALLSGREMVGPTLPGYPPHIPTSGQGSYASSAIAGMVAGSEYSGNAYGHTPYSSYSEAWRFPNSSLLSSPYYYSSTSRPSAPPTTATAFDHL
Sequence of Nonstructural protein 1 (Q194T2 whole entry): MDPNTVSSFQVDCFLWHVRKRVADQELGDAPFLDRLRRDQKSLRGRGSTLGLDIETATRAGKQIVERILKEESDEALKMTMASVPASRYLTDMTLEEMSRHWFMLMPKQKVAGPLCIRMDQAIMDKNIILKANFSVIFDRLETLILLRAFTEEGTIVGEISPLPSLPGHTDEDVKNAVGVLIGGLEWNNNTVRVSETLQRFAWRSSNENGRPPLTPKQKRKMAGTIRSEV

For `Cc1ccc(NC(=O)c2ccc([N+](=O)[O-])o2)c(C)c1`, the CC50 [1] was 15.4 µM (active), the CC50 [2] was > 20 µM (active) and the IC50 (cells) was 3.46 µM (active). The CC50 [3] was 6.74 µM (active).
In the case of `Cc1ccc(Cl)cc1N1CCN(C(=O)c2ccc(NS(=O)(=O)c3c(C)noc3C)cc2)CC1`, the EC50 [4] is reported as 13.2 µM (active) and the EC50 [5] is reported as 16.7 µM (active).
With `CCOc1cccc(C(=O)C2=C(O)C(=O)N(CCOC)C2c2ccc(C)o2)c1` (stereo not drawn) the Ki (fMet-Leu-Phe receptor) was 13.5 µM (active).
With `O=c1[nH]c2ccccc2n1C1CCN(C(c2ccccc2OC(F)(F)F)c2nnnn2-c2ccc3c(c2)OCCO3)CC1` (stereo not drawn) the AC50 (Paired box protein Pax-8) was 4.52 µM (active) and the IC50 [6] was > 69.5 µM (inactive).
In the case of `O=C(CSc1nccn1-c1ncc(C(F)(F)F)cc1Cl)c1ccc(Cl)cc1`, the IC50 (Beta-galactosidase) is reported as > 66.6 µM (inactive).
In the case of `C=CCOc1ccc(C2C(C(=O)c3cccs3)=C(O)C(=O)N2c2nnc(C)s2)cc1` (stereo not drawn), the Ki (fMet-Leu-Phe receptor) is reported as 40.5 µM (inactive), the EC50 [7] is reported as 10.8 µM (inconclusive) and the EC50 [8] is reported as 3.06 µM (active).
With `Cc1ccc(/C=C2\SC(=S)N(c3c(C)n(C)n(-c4ccccc4)c3=O)C2=O)cc1` the IC50 [9] was > 66 µM (inactive), the IC50 (Aminopeptidase N) was 120 µM (active) and the IC50 [10] was > 66 µM (inactive).
In the case of `CCC1(C)Nc2ccccc2C(=O)N1O` (stereo not drawn), the EC50 [4] is reported as 17.1 µM (active) and the EC50 [5] is reported as > 20 µM (not active).
In the case of `N#CC1=C(SCC(=O)c2ccc(Br)cc2)N=C2CCCC(O)=C2C1c1ccco1` (stereo not drawn), the EC50 [4] is reported as 4.34 µM (active), the EC50 [5] is reported as 5.58 µM (active) and the AC50 [11] is reported as 2.13 µM (active).
In the case of `O=C(CNC(=O)c1ccccc1Cl)N/N=C/c1ccc([N+](=O)[O-])s1`, the CC50 [1] is reported as 25 µM (active), the CC50 [2] is reported as > 20 µM (active) and the IC50 (cells) is reported as 36.6 µM (active). The CC50 [3] was 13.6 µM (active).
For `NC(=O)c1nsc(C(=O)N(c2ccc(F)cc2)C(C(=O)NCC2CCCO2)c2c[nH]c3ccccc23)c1N` (stereo not drawn), the IC50 [12] was > 20 µM (inactive).
With `COC(=O)COc1ccc2c(=O)c(Oc3ccccc3)c(C)oc2c1` the Ki (fMet-Leu-Phe receptor) was > 66.7 µM (inactive) and the IC50 (cells) was 2.94 µM (active).
With `OCCNc1nc(O)c2c(ncn2Cc2ccccc2)n1` the EC50 [13] was > 32 µM (inactive).
In the case of `NS(=O)(=O)c1ccc(N/N=C/c2ccc3c(c2)OCO3)c([N+](=O)[O-])c1`, the IC50 [14] is reported as 3.59 µM (active).
In the case of `CCOC(=O)C1=C(N)n2c(s/c(=C\c3ccco3)c2=O)=C(C(=O)OCC)C1c1ccco1` (stereo not drawn), the EC50 [4] is reported as 1.47 µM (active), the EC50 [5] is reported as 1.19 µM (active) and the EC50 (H4) is reported as > 120 µM (not active). For the same compound, the AC50 (Cytochrome P450 3A4) was 28.2 µM (inconclusive), the EC50 [15] was > 120 µM (not active) and the EC50 [16] was > 120 µM (not active).
In the case of `CCN1C(=O)/C(=C2\SC(=S)N(CCCOC)C2=O)c2ccccc21`, the Ki (fMet-Leu-Phe receptor) is reported as > 66.7 µM (inactive), the AC50 (Cytochrome P450 3A4) is reported as 3.55 µM (inconclusive) and the IC50 (Nonstructural protein 1) is reported as 62.7 µM (active). For the same compound, the AC50 (Cytochrome P450 2C19) was 11.2 µM (inconclusive).
In the case of `Oc1[nH]c2ccc(Br)cc2c1N=Nc1nn[nH]n1`, the EC50 [7] is reported as 14 µM (active), the IC50 (Aminopeptidase N) is reported as 26.5 µM (active) and the EC50 [8] is reported as 5.18 µM (active).
